# Experimental data as given in patent US9884863B2, “STAT3 inhibitor” (Board of Regents, The University of Texas System, priority 2013, dated 2018).
# Read-outs that look alike come from different tables or passages of the source.
# Columns and labels:
# MDA-MB-231 = test: MTS cell proliferation assay, MDA-MB-231; format: cell-based, human; details: Homo sapiens, MDA-MB-231, >10 = no effect
# Experimental: (§1) Cancer cells (breast cancer cell lines MCF-7, MDA-MB-361, SKBR3 and MDA-MB-231, pancreatic cancer cell lines AsPC-1. BxPC3 and Panc-1) were seeded in 96-well plates at a density of 1000-2000 cells/well and treated with DMSO, 0.01, 0.1, 1, 5, 10, and 100 mM of STAT3 individual inhibitors for 72 hrs. Proliferation was measured by treating cells with the 3-(4,5-dimethylthiazol-2-yl)-5-(3-carboxymethoxyphenyl)-2-(4-sulfophenyl)-2H-tetrazolium) (MTS) in a CellTiter 96t AQueous Non-Radioactive Cell Proliferation Assay kit from Promega, Madison, Wis., USA). Absorbance of all wells was determined by measuring OD at 550 nm after 1 hr incubation at 37° C. on a 96-well iMark™ Microplate Absorbance Reader (BioRad, Hercules, Calif.).
# In Vitro Determination of Effects of Synthesized Compounds on Cancer Cell Proliferation. Cancer cells (breast cancer cell lines MCF-7 and MDA-MB-231, pancreatic cancer cell lines AsPC-1 and Panc-1) were seeded in 96-well plates at a density of 2×10^3 cells/well and treated with DMSO, 0.01, 0.1, 1, 5, 10, and 100 μM of individual STAT3 inhibitors for 72 h. Proliferation was measured by treating cells with the 3-(4,5-dimethylthiazol-2-yl)-5-(3-carboxymethoxyphenyl)-2-(4-sulfophenyl)-2H-tetrazolium) (MTS) in a CellTiter 96t Aqueous Non-Radioactive Cell Proliferation Assay kit (Promega, Madison, Wis., USA). Absorbance of all wells was determined by measuring OD at 550 nm after 1 h incubation at 37° C. on a 96-well iMark™ Microplate Absorbance Reader (BioRad, Hercules, Calif.). Each individual compound was tested in quadruplicate wells for each concentration. […]
# MCF-7 = test: MTS cell proliferation assay, MCF-7; format: cell-based, human; details: for IC50: Homo sapiens
# Experimental: as §1, with “BxPC3 and Panc-1) were seeded in 96-well plates at a density of 1000-2000 cells/well and treated with DMSO, 0.01, 0.1, 1, 5, 10, and 100 mM of STAT3 individual inhibitors for 72 hrs.” left out, “Calif.). Each individual compound was tested in quadruplicate wells for each concentration, and the results were reported as mean absorption±s.e.” for “Calif.).”
# In Vitro Determination of Effects of Synthesized Compounds on Cancer Cell Proliferation. Cancer cells (breast cancer cell lines MCF-7 and MDA-MB-231, pancreatic cancer cell lines AsPC-1 and Panc-1) were […], 0.01, 0.1, 1, 5, 10, […] Proliferation was measured by treating cells with the 3-(4,5-dimethylthiazol-2-yl)-5-(3-carboxymethoxyphenyl)-2-(4-sulfophenyl)-2H-tetrazolium) (MTS) in a CellTiter 96t Aqueous Non-Radioactive Cell Proliferation Assay kit (Promega, Madison, Wis., USA). Absorbance of all wells was determined by measuring OD at 550 nm after 1 h incubation at 37° C. on a 96-well iMark™ Microplate Absorbance Reader (BioRad, Hercules, Calif.). Each individual compound was tested in quadruplicate wells for each concentration.
# AsPC1 = test: MTS cell proliferation assay, AsPC1; format: cell-based, human; details: Homo sapiens, ASPC1
# Experimental: as §1, with “Calif.). Each individual compound was tested in quadruplicate wells for each concentration, and the results were reported as mean absorption±s.e.” for “Calif.).”
# (§2) In Vitro Determination of Effects of Synthesized Compounds on Cancer Cell Proliferation. Cancer cells (breast cancer cell lines MCF-7 and MDA-MB-231, pancreatic cancer cell lines AsPC-1 and Panc-1) were seeded in 96-well plates at a density of 2×10^3 cells/well and treated with DMSO, 0.01, 0.1, 1, 5, 10, and 100 μM of individual STAT3 inhibitors for 72 h. Proliferation was measured by treating cells with the 3-(4,5-dimethylthiazol-2-yl)-5-(3-carboxymethoxyphenyl)-2-(4-sulfophenyl)-2H-tetrazolium) (MTS) in a CellTiter 96t Aqueous Non-Radioactive Cell Proliferation Assay kit (Promega, Madison, Wis., USA). Absorbance of all wells was determined by measuring OD at 550 nm after 1 h incubation at 37° C. on a 96-well iMark™ Microplate Absorbance Reader (BioRad, Hercules, Calif.). Each individual compound was tested in quadruplicate wells for each concentration.
# Panc-1 = test: MTS cell proliferation assay, Panc-1; format: cell-based, human; details: Homo sapiens, PANC-1
# Experimental: as §1, with “Calif.). Each individual compound was tested in quadruplicate wells for each concentration, and the results were reported as mean absorption±s.e.” for “Calif.).”
# as §2
# [1] = ER-negative breast cancer, 72 hrs, read-out: IC50 MDA-MB-231 (Table 1)
# [2] = MCF7, 72 h, read-out: IC50 MCF-7 (Table 1)
# [3] = pancreatic cancer, 72 hrs, >10 = no effect, read-out: IC50 AsPC1 (Table 1)
# [4] = pancreatic cancer, 72 hrs, >10 = no effect, read-out: IC50 Panc-1 (Table 1)
Structure (SMILES),melting point [°C],further results
COC1CS(=O)(=O)c2cc(NC(=O)c3cc(Cl)ccc3O)ccc21 (stereo not shown) [Compound 14],–,"IC50 (MDA-MB-231; Table 2 numbering 1-14, read-out: IC50 MDA-MB-231 (Table 2)): 7.05 µM; IC50 (MCF-7; MCF7, Table 2 numbering 1-14, >10 = no effect, read-out: IC50 MCF-7 (Table 2)): 6.07 µM; IC50 (AsPC1; Table 2 numbering 1-14, read-out: IC50 AsPC1 (Table 2)): 8.46 µM; IC50 (Panc-1; Table 2 numbering 1-14, read-out: IC50 Panc-1 (Table 2)): 8.39 µM"
"O=C(Nc1ccc2c(c1)S(=O)(=O)C=C2)c1cc(Cl)ccc1OCCN1CCNCC1 [HJC-4-13, 5-Chloro-N-(1,1-dioxo-1H-1λ^6-benzo[b]thiophen-6-yl)-2-(2-piperazin-1-yl-ethoxy) benzamide]",–,IC50 (MDA-MB-231; [1]): 3.29 µM; IC50 (MCF-7; [2]): 2.56 µM; IC50 (AsPC1; [3]): 1.87 µM; IC50 (Panc-1; [4]): 3.69 µM
"O=C(Nc1ccc2c(c1)S(=O)(=O)C=C2)c1ccnc(-c2ccccc2)c1 [HJC-4-30, N-(1,1-Dioxo-1H-1λ^6-benzo[b]thiophen-6-yl)-2-phenyl-isonicotinamide]",–,"IC50 (MDA-MB-231; [1]): 1.85 µM; IC50 (MCF-7; [2]): 3.78 µM; inhibition on breast cancer cell proliferation (FIG. 1) (MCF-7; MCF-7, 48 hr, μM concentrations): significant inhibition; IC50 (AsPC1; [3]): 1.3 µM; IC50 (Panc-1; [4]): 3.35 µM"
"COc1ccc(/C=C(\C#N)C(=O)Nc2ccc3c(c2)S(=O)(=O)C=C3)cc1 [RMF-1-13, 2-Cyano-N-(1,1-dioxo-1H-1λ^6-benzo[b]thiophen-6-yl)-3-(4-methoxyphenyl)acrylamide]",275 to 276,–
"N#C/C(=C\c1ccccn1)C(=O)Nc1ccc2c(c1)S(=O)(=O)C=C2 [HJC-5-90, 2-Cyano-N-(1,1-dioxo-1H-1λ^6-benzo[b]thiophen-6-yl)-3-pyridin-2-yl-acrylamide]",234 to 235,–
"N#C/C(=C\c1cccc(Cl)c1)C(=O)Nc1ccc2c(c1)S(=O)(=O)C=C2 [HJC-5-89, 3-(3-Chlorophenyl)-2-cyano-N-(1,1-dioxo-1H-1λ^6-benzo[b]thiophen-6-yl)acrylamide]",234 to 235,–
"N#C/C(=C\c1ccc(O)cc1)C(=O)Nc1ccc2c(c1)S(=O)(=O)C=C2 [RMF-1-11, 2-Cyano-N-(1,1-dioxo-1H-1λ^6-benzo[b]thiophen-6-yl)-3-(4-hydroxyphenyl)acrylamide]",306 to 307,–
"N#C/C(=C\c1c[nH]c2ncccc12)C(=O)Nc1ccc2c(c1)S(=O)(=O)C=C2 [RMF-1-17, 2-Cyano-N-(1,1-dioxo-1H-1λ^6-benzo[b]thiophen-6-yl)-3-(1H-pyrrolo[2,3-b]pyridin-3-yl)acrylamide]",300 to 301,–
"N#C/C(=C\c1ccccc1Br)C(=O)Nc1ccc2c(c1)S(=O)(=O)C=C2 [RMF-1-7, 3-(2-Bromophenyl)-2-cyano-N-(1,1-dioxo-1H-1λ^6-benzo[b]thiophen-6-yl)acrylamide]",226 to 227,–
"O=C(Nc1nnc(-c2ccco2)o1)c1cc(Cl)ccc1O [Compound 13, 5-Chloro-N-(5-furan-2-yl-[1,3,4]oxadiazol-2-yl)-2-hydroxybenzamide]",196 to 197,–
"N#C/C(=C\c1ccc(Br)cc1)C(=O)Nc1ccc2c(c1)S(=O)(=O)C=C2 [RMF-1-8, 3-(4-Bromophenyl)-2-cyano-N-(1,1-dioxo-1H-1λ^6-benzo[b]thiophen-6-yl)acrylamide]",289 to 290,–

# Now from value to molecule, other results behind:
melting point [°C],Structure (SMILES),further results
254 to 255,"N#C/C(=C\c1ccccc1[N+](=O)[O-])C(=O)Nc1ccc2c(c1)S(=O)(=O)C=C2 [RMF-1-36, 2-Cyano-N-(1,1-dioxo-1H-1λ^6-benzo[b]thiophen-6-yl)-3-(2-nitrophenyl)acrylamide]",–
262 to 263,"N#C/C(=C\c1cccnc1F)C(=O)Nc1ccc2c(c1)S(=O)(=O)C=C2 [RMF-1-24, 2-Cyano-N-(1,1-dioxo-1H-1λ^6-benzo[b]thiophen-6-yl)-3-(2-fluoro-pyridin-3-yl)acrylamide]",–
271 to 272,"N#C/C(=C\c1ccc(F)cc1)C(=O)Nc1ccc2c(c1)S(=O)(=O)C=C2 [RMF-1-29, 2-Cyano-N-(1,1-dioxo-1H-1λ^6-benzo[b]thiophen-6-yl)-3-(4-fluorophenyl)acrylamide]",–
242 to 243,"N#C/C(=C\c1cccnc1Br)C(=O)Nc1ccc2c(c1)S(=O)(=O)C=C2 [RMF-1-26, 3-(2-Bromopyridin-3-yl)-2-cyano-N-(1,1-dioxo-1H-1λ^6-benzo[b]thiophen-6-yl)acrylamide]",–
245 to 246,"N#C/C(=C\c1cccc(F)c1)C(=O)Nc1ccc2c(c1)S(=O)(=O)C=C2 [RMF-1-31, 2-Cyano-N-(1,1-dioxo-1H-1λ^6-benzo[b]thiophen-6-yl)-3-(3-fluorophenyl)acrylamide]",–
272 to 273,"N#C/C(=C\c1ccc([N+](=O)[O-])cc1)C(=O)Nc1ccc2c(c1)S(=O)(=O)C=C2 [RMF-1-37, 2-Cyano-N-(1,1-dioxo-1H-1λ^6-benzo[b]thiophen-6-yl)-3-(4-nitrophenyl)acrylamide]",–
251 to 252,"N#C/C(=C\c1cccnc1Cl)C(=O)Nc1ccc2c(c1)S(=O)(=O)C=C2 [RMF-1-25, 3-(2-Chloro-pyridin-3-yl)-2-cyano-N-(1,1-dioxo-1H-1λ^6-benzo[b]thiophen-6-yl)acrylamide]",–
180 to 181,"N#C/C(=C\C1CCCCC1)C(=O)Nc1ccc2c(c1)S(=O)(=O)C=C2 [RMF-1-20, 2-Cyano-3-cyclohexyl-N-(1,1-dioxo-1H-1λ^6-benzo[b]thiophen-6-yl)acrylamide]",–
245 to 246,"COc1cccc(/C=C(\C#N)C(=O)Nc2ccc3c(c2)S(=O)(=O)C=C3)c1 [RMF-1-35, 2-Cyano-N-(1,1-dioxo-1H-1λ^6-benzo[b]thiophen-6-yl)-3-(3-methoxyphenyl)acrylamide]",–
261 to 262,"COc1ncccc1/C=C(\C#N)C(=O)Nc1ccc2c(c1)S(=O)(=O)C=C2 [RMF-1-27, 2-Cyano-N-(1,1-dioxo-1H-1λ^6-benzo[b]thiophen-6-yl)-3-(2-methoxy-pyridin-3-yl)acrylamide]",–
